The test system of one test is CCRF-CEM. The experiment in a line: Compound is screened for cell growth inhibition against CCRF-CEM cell line, a human lymphoblastic leukemia line of T-cell origin. It counts as functional, cell-based.
For a further test, the system named is GC3/MTK-. In words: Compound is screened for cell growth inhibition against GC3/MTK-cell line, a human thymidine kinase deficient adenocarcinoma line. It counts as functional, cell-based.
The test system of another test is L1210. In words: Compound is screened for cell growth inhibition against L1210 murine leukemia tumor cell line. It counts as functional, cell-based. The conditions noted are these: Mus musculus.
In test [1] the target is Thymidylate synthase (Homo sapiens, UniProt P04818). The experiment in a line: Inhibitory effect against recombinant human thymidylate synthase.
Sequence of Thymidylate synthase (Homo sapiens, UniProt P04818) (P04818 whole entry): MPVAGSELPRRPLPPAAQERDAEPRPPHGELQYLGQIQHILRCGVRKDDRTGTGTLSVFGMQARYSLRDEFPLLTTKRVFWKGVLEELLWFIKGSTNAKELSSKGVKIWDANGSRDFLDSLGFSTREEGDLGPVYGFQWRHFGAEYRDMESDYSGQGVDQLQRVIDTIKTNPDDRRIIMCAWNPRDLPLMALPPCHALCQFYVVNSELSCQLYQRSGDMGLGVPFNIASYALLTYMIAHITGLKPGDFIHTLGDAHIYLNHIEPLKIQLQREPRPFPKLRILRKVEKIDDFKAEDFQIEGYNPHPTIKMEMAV
The nature of test [2]: Compound is evaluated for thymidine shift. […]. The class given is functional.
Test [3] has as its target Thymidylate synthase (Escherichia coli, UniProt C3SWJ7). The experiment in a line: Inhibitory effect against Escherichia coli thymidylate synthase.

Broadly, the IC50 is the midpoint of a concentration-inhibition curve. Low values mean higher potency, high ones lower potency. Usually Ki stands for a dissociation constant, usually derived from enzyme kinetics or from competition with a known ligand.

Sequence of Thymidylate synthase (Escherichia coli, UniProt C3SWJ7) (C3SWJ7 whole entry): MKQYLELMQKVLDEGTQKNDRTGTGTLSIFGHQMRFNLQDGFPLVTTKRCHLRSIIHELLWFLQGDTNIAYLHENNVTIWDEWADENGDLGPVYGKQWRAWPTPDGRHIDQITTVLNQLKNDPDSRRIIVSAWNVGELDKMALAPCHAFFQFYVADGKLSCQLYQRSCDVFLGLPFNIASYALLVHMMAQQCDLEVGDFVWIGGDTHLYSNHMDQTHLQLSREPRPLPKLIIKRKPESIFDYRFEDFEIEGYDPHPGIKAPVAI

In the case of `CN(Cc1ccnc(Sc2ccccc2)c1)c1ccc2c3c(cccc13)C(N)=N2`, the IC50 was determined as 2 µM with CCRF-CEM, 11.5 µM in the test with GC3/MTK- and 0.66 µM with L1210. In addition, the Ki at Thymidylate synthase [1] amounted to 0.052 µM. Besides, the Thymidine shift in test [2] is 1.8.

With `Cc1ccc2c3c(ccc(N(C)Cc4ccnnc4)c13)N=C2N`, the results for the IC50 in the test with CCRF-CEM, with GC3/MTK- and with L1210 were 0.78 µM, 2.1 µM and 0.45 µM, respectively. The Ki at Thymidylate synthase [1] was determined as 0.01 µM. In addition, the Thymidine shift in test [2] was 12.1.

Consider `Cc1ccc2c3c(ccc(N(C)Cc4ccncc4)c13)N=C2N`, for which the IC50 in the test with CCRF-CEM worked out at 0.44 µM; in the test on GC3/MTK-, 1.1 µM; in the test with L1210, 0.16 µM. Also, the inhibition constant Ki was determined as 0.6 µM on Thymidylate synthase [3] and 0.006 µM on Thymidylate synthase [1]. In test [2], the Thymidine shift amounted to 2.3.

For `CN(Cc1ccc(S(=O)(=O)N2CCOCC2)cc1)c1ccc2c3c(cccc13)C(=N)N2`, the Thymidine shift in test [2] was found to be 6.7.

In the case of `CN(Cc1ccnc(CO)c1)c1ccc2c3c(cccc13)C(N)=N2`, the IC50 was 3 µM in the test with CCRF-CEM, 11 µM in the test on GC3/MTK- and 1.3 µM in the test with L1210. In addition, the Ki at Thymidylate synthase [1] was 0.018 µM. Also, the Thymidine shift in test [2] stood at 6.9.

`CN(Cc1ccc(S(=O)(=O)N2CCOCC2)cc1)c1ccc2c3c(cccc13)C(N)=N2` [METESIND]: the Ki was 5.4 µM at Thymidylate synthase [3] and 0.015 µM on Thymidylate synthase [1].

For the molecule `Cc1cc(CN(C)c2ccc3c4c(cccc24)C(N)=N3)ccn1`, the IC50 in the test with CCRF-CEM turned out to be 2.3 µM; in the test with GC3/MTK- it was 7.9 µM; with L1210 it was 1.6 µM. Moreover, the inhibitory constant (Ki) on Thymidylate synthase [3] stood at 1.8 µM; on Thymidylate synthase [1], 0.014 µM. In addition, the Thymidine shift in test [2] turned out to be 2.1.

With `CN(Cc1ccncc1)c1ccc2c3c(cccc13)C(N)=N2`, the results for the IC50 in the test on CCRF-CEM, in the test with GC3/MTK- and in the test on L1210 were 2.4 µM, 4.8 µM and 0.095 µM, respectively. Besides, the Ki was 6.6 µM at Thymidylate synthase [3] and 0.017 µM at Thymidylate synthase [1]. The Thymidine shift in test [2] worked out at 4.9.

Regarding `Cc1cc(CN(C)c2ccc3c4c(ccc(C)c24)C(N)=N3)ccn1`, the IC50 in the test with CCRF-CEM is 0.45 µM; in the test on GC3/MTK-, 0.6 µM; in the test with L1210, 0.17 µM. In addition, the Ki at Thymidylate synthase [1] was 0.004 µM. Moreover, in test [2], the Thymidine shift is 4.1.

Take `CN(Cc1ccnc(C(F)(F)F)c1)c1ccc2c3c(cccc13)C(N)=N2`: the IC50 in the test with CCRF-CEM was determined as 5.9 µM; in the test on GC3/MTK-, 12 µM; in the test on L1210, 2.1 µM. The inhibitory constant (Ki) on Thymidylate synthase [1] was 0.045 µM. Also, in test [2], the Thymidine shift came to 4.2.

On to `CNC1=Nc2ccc(N(C)Cc3ccnnc3)c3c(C)ccc1c23`, for which the IC50 turned out to be 3.7 µM in the test with CCRF-CEM, 9.9 µM with GC3/MTK- and 0.8 µM with L1210. Also, the Ki at Thymidylate synthase [1] is 0.03 µM. The Thymidine shift in test [2] is 2.6.

On to `CCc1cc(CN(C)c2ccc3c4c(cccc24)C(N)=N3)ccn1`, for which the results for the IC50 with CCRF-CEM, with GC3/MTK- and in the test with L1210 were 3 µM, 6.5 µM and 1 µM, respectively. At Thymidylate synthase [1], the Ki came to 0.025 µM. Moreover, the Thymidine shift in test [2] came to 2.8.

Regarding `CN(Cc1ccnnc1)c1ccc2c3c(cccc13)C(N)=N2`, the IC50 in the test with CCRF-CEM is 4 µM; with GC3/MTK-, 5 µM; in the test on L1210, 0.9 µM. Also, the values for the inhibition constant (Ki) on Thymidylate synthase [3] and at Thymidylate synthase [1] were 18 µM and 0.015 µM, respectively. Moreover, in test [2], the Thymidine shift came out at 7.7.

Turning to `CNC1=Nc2ccc(N(C)Cc3ccncc3)c3cccc1c23`, the IC50 came out at 5.1 µM with CCRF-CEM, 23 µM with GC3/MTK- and 1.9 µM in the test on L1210. Moreover, the inhibition constant (Ki) on Thymidylate synthase [1] came out at 0.27 µM. Moreover, the Thymidine shift in test [2] was found to be 2.6.

`CNC1=Nc2ccc(N(C)Cc3ccnnc3)c3cccc1c23`: the half-maximal inhibitory concentration (IC50) in the test with CCRF-CEM amounted to 9 µM; in the test on GC3/MTK- it was 26 µM; in the test with L1210, 6.9 µM. Also, the inhibition constant (Ki) at Thymidylate synthase [1] amounted to 0.31 µM. Moreover, the Thymidine shift in test [2] was 1.9.

As for `CNC1=Nc2ccc(N(C)Cc3ccncc3)c3c(C)ccc1c23`, the IC50 in the test with CCRF-CEM stood at 1.1 µM; in the test on GC3/MTK-, 3.6 µM; in the test on L1210, 0.21 µM. On Thymidylate synthase [1], the Ki was found to be 0.014 µM. In addition, the Thymidine shift in test [2] was determined as 4.1.
